According to patent publication US20040166509A1, “Detecting hormonally active compounds” (priority 2002, published 2004):

What was measured:
[1] = tested on: hepatic mRNA of adult male SHMs; test: SHM cDNA macroarray (30 genes): hepatic gene expression profiles of exposed fish; type: in vivo, sheepshead minnow (SHM); details: adult male SHM liver, aqueous E2 65.14 ng/L 5 d, vs untreated control
hepatic RNA of LMB = test: LMB gene array (132 genes): hepatic gene expression after IP injection; type: in vivo, largemouth bass (LMB); details: male LMB liver, two-fold cutoff vs control
[2] = tested on: hepatic mRNA of adult male SHMs; test: SHM estrogen responsive macroarray (54 cDNA clones), E2 exposure; type: in vivo, sheepshead minnow (SHM); details: adult male SHM liver; aqueous 100 ng/L E2 in TEG, 5 days; vs TEG control
Experimental: Total hepatic mRNA was extracted from 5 adult male SHMs treated by aqueous exposure to 100 ng/L of E2 dissolved in triethylene glycol (TEG) for 5 days. Minipreps of 54 cDNA clones derived from DD analysis were PCR amplified using primers specific to the M13 sequence of the cloning vector (pGEMT-Easy, Promega, Madison,Wis.). After the PCR reactions the products were purified in spin-columns (Qiagen, Chatsworth, Calif.) and then concentrated in a speed-vac. The cDNA samples were denatured with NaOH, heated to 65° C. for 10 min, and then immediately quenched on ice. 20×SSC (3M NaCl, 0.3M sodium citrate, pH 7.0) that contained 0.01 mM bromophenol blue was then added to the samples to yield a final concentration of 0.3M NaOH, 6×SSC, and 100 ng/μL cDNA template. The samples were then robotically spotted (Biomek 2000, Beckman Coulter, Fullerton, Calif.) in duplicate onto neutral nylon membranes (Fisher Scientific, Pittsburgh, Pa.) using 100 nL pins. The membranes were UV cross-linked and then stored under vacuum at room temperature until hybridized. Various controls, which provided information about the cDNA labeling efficiency, blocking, and non-specific binding of the arrays, were also spotted onto the membranes. These controls included: 3 Arabidopsis thaliana cDNA clones, Cot-1 repetitive sequences, poly A sequence (SpotReport 3, Stratagene, La Jolla, Calif.), and a M13 sequence (vector but no cDNA insert). Labeling of RNA probes and hybridization of blots was performed as described in Example 1.
FIGS. 4A and 4B contain blots of control (TEG-treated) and E2-treated fish, respectively. FIG. 4C is a plot of the mean intensity values. Genes on the macroarray were designated as constitutive genes if their intensity values fell within the range of the highest (1.27) and lowest (0.83) value of the 17 cDNA clones that were used to normalize the data.

[3] = tested on: LMB genes (ER alpha, ER gamma, StAR); set-up: species or system largemouth bass (LMB); details: Table II, test not stated
[4] = EE2 109 ng/L 4 d, DES 100 ng/L 4 d, pNP 11.81 μg/L 5 d, MXC 5.59 μg/L 13 d, ES 590.3 ng/L

Structure (SMILES): C[C@]12CC[C@@H]3c4ccc(O)cc4CC[C@H]3[C@@H]1CC[C@@H]2O [E2, estradiol]
- ER α expression [1, 4]: up-regulated (any cDNA clones in the macroarray experiments above a ˜1.66-fold induction were designated as up-regulated genes)
- Vtg α expression [1, 4]: up-regulated (any cDNA clones in the macroarray experiments above a ˜1.66-fold induction were designated as up-regulated genes)
- Vtg β expression [1]: up-regulated (any cDNA clones in the macroarray experiments above a ˜1.66-fold induction were designated as up-regulated genes)
- alpha-1-microglobulin/bikunin precursor protein expression [1]: down-regulated (any cDNA clones that had a value below ˜0.42 were designated as down-regulated)
- beta actin expression [1]: down-regulated (any cDNA clones that had a value below ˜0.42 were designated as down-regulated)
- choriogenin 2 expression [1]: up-regulated (any cDNA clones in the macroarray experiments above a ˜1.66-fold induction were designated as up-regulated genes)
- choriogenin 3 expression [1]: up-regulated (any cDNA clones in the macroarray experiments above a ˜1.66-fold induction were designated as up-regulated genes)
- coagulation factor XI expression [1]: up-regulated (any cDNA clones in the macroarray experiments above a ˜1.66-fold induction were designated as up-regulated genes)
- transferrin expression [1]: down-regulated (any cDNA clones that had a value below ˜0.42 were designated as down-regulated)
- clone 132-2 expression (hepatic RNA of LMB; 48 h after single IP E2 2.5 mg/kg): up-regulated (only genes that exhibit a two-fold or greater change in expression were considered to be differentially regulated)
- four Vtg genes expression (hepatic RNA of LMB; 48 h after single IP dose: E2 2.5 mg/kg or 4-NP 50 mg/kg): up-regulated (only genes that exhibit a two-fold or greater change in expression were considered to be differentially regulated)
- choriogenic protein (ZP2) expression [2]: up-regulated (intensity value above ˜1.27 was designated an E2 up-regulated gene)
- transferrin expression [2]: down-regulated (a value below ˜0.83 was designated an E2 down-regulated gene)
- vitellogenin α expression [2]: up-regulated (intensity value above ˜1.27 was designated an E2 up-regulated gene)
- vitellogenin β expression [2]: up-regulated (intensity value above ˜1.27 was designated an E2 up-regulated gene)

Structure (SMILES): CC[C@H](CC[C@@H](C)[C@H]1CC[C@H]2[C@@H]3CC=C4C[C@@H](O)CC[C@]4(C)[C@H]3CC[C@]12C)C(C)C [b-sitosterol]
- LMB_STAR STAR PROTEIN differentially expressed by [3]: dn-reg b-
